Patent US7053107B2, “Indazole compounds and pharmaceutical compositions for inhibiting protein kinases, and methods for their use” (Agouron Pharmaceuticals, Inc., priority 2002, dated 2006)
Where two headings read alike, the source gives them in different places.

Tests used:
[1] = target: T1, LCK (Homo sapiens, UniProt P06239, C224D/P223M); experiment: Lymphocyte-Specific Protein-Tyrosine Kinase (LCK) spectrophotometric assay; type: biochemical; details: 1 μM compound; read-out: LckP* % inhibit @1 μM
T1 construct: starting from amino acid residue 223 to the end of the protein at residue 509; made in house; host or cells: insect cells

[2] = target: T2, unphosphorylated VEGF-R2Δ50 (Homo sapiens, UniProt P35968, DEL940-989/E990V); experiment: VEGF-R2 coupled spectrophotometric assay, unphosphorylated construct (FLVK); type: biochemical; details: % inhibition at 50 nM compound; read-out: FLVK Ki % inh @ 50 nM
T2 construct: VEGF-R2Δ50 contains residues 806–939 and 990–1171; made in house; host or cells: baculovirus/insect cell system
Source text: This construct determines the ability of a test compound to inhibit tyrosine kinase activity. A construct (VEGF-R2Δ50) of the cytosolic domain of human vascular endothelial growth factor receptor 2 (VEGF-R2) lacking the 50 central residues of the 68 residues of the kinase insert domain was expressed in a baculovirus/insect cell system. Of the 1356 residues of full-length VEGF-R2, VEGF-R2Δ50 contains residues 806–939 and 990–1171, and also one point mutation (E99OV) within the kinase insert domain relative to wild-type VEGF-R2. Autophosphorylation of the purified construct was performed by incubation of the enzyme at a concentration of 4 μM in the presence of 3 mM ATP and 40 mM MgCl2 in 100 mM HEPES, pH 7.5, containing 5% glycerol and 5 mM DTT, at 4° C. for 2 h. […] See Parast et al., Biochemistry, 37,16788–16801 (1998).
(§1) The production of ADP from ATP that accompanies phosphoryl transfer was coupled to oxidation of NADH using phosphoenolpyruvate (PEP) and a system having pyruvate kinase (PK) and lactic dehydrogenase (LDH). The oxidation of NADH was monitored by following the decrease of absorbance at 340 nm (e340=6.22 cm^−1 mM^−1) using a Beckman DU 650 spectrophotometer. Assay conditions for phosphorylated VEGF-R2A50 (indicated as FLVK-P in the tables below) were the following: 1 mM PEP; 250 μM NADH; 50 units of LDH/mL; 20 units of PK/mL; 5 mM DTT; 5.1 mM poly(E4Y1); 1 mM ATP; and 25 mM MgCl2 in 200 mM HEPES, pH 7.5. Assay conditions for unphosphorylated VEGF-R2Δ50 (indicated as FLVK in the tables) were the following: 1 mM PEP; 250 μM NADH; 50 units of LDH/mL; 20 units of PK/mL; 5 mM DTT; […]; 3 mM ATP; and 60 mM MgCl2 and 2 mM MnCl2 in 200 mM HEPES, pH 7.5. Assays were initiated with 5 to 40 nM of enzyme. Ki values were determined by measuring enzyme activity in the presence of varying concentrations of test compounds. The data were analyzed using Enzyme Kinetic and Kaleidagraph software.

[3] = tested on: human umbilical vein endothelial cells (HUVEC); experiment: HUVEC Proliferation Assay (VEGF-stimulated); type: cell-based
Method: (§2) This assay determines the ability of a test compound to inhibit the growth factor-stimulated proliferation of human umbilical vein endothelial cells (“HUVEC”). HUVEC cells (passage 3–4, Clonetics, Corp.) were thawed into EGM2 culture medium (Clonetics Corp) in T75 flasks. Fresh EGM2 medium was added to the flasks 24 hours later. Four or five days later, cells were exposed to another culture medium (F12K medium supplemented with 10% fetal bovine serum (FBS), 60 μg/mL endothelial cell growth supplement (ECGS), and 0.1 mg/mL heparin). Exponentially-growing HUVEC cells were used in experiments thereafter. Ten to twelve thousand HUVEC cells were plated in 96-well dishes in 100 μl of rich, culture medium (described above). The cells were allowed to attach for 24 hours in this medium. The medium was then removed by aspiration and 105 μl of starvation media (F12K+1% FBS) was added to each well. After 24 hours, 15 μl of test agent dissolved in 1% DMSO in starvation medium or this vehicle alone was added into each treatment well; the final DMSO concentration was 0.1%. One hour later, 30 μl of VEGF (30 ng/mL) in starvation media was added to all wells except those containing untreated controls; the final VEGF concentration was 6 ng/mL. Cellular proliferation was quantified 72 hours later by MTT dye reduction, at which time cells were exposed for 4 hours MTT (Promega Corp.). Dye reduction was stopped by addition of a stop solution (Promega Corp.) and absorbance at 595λ was determined on a 96-well spectrophotometer plate reader.
(§3) IC50 values were calculated by curve-fitting the response of A^595 to various concentrations of the test agent; typically, seven concentrations separated by 0.5 log were employed, with triplicate wells at each concentration. For screening compound library plates, one or two concentrations (one well per concentration) were employed, and the % inhibition was calculated by the following formula: % inhibition=(control−test)[…](control−starvation) where
control=A^595 when VEGF is present without test agent
test=A^595 when VEGF is present with test agent
starvation=A^595 when VEGF and test agent are both absent.

[4] = tested on: HUVEC; experiment: HUVEC + albumin proliferation; type: cell-based; details: Homo sapiens, 72 h, with albumin
Method: as §2, §3

[5] = Human Liver Microsome (HLM) Assay; type: in vitro ADME; details: @0.5 h
Method: Compound metabolism in human liver microsomes was measured by LC-MS analytical assay procedures as follows. First, human liver microsomes (HLM) were thawed and diluted to 5 mg/mL with cold 100 mM potassium phosphate (KPO4) buffer. Appropriate amounts of KPO4 buffer, NADPH-regenerating solution (containing B-NADP, glucose-6-phosphate, glucose-6-phosphate dehydrogenase, and MgCl2), and HLM were preincubated in 13×100 mm glass tubes at 37 C. for 10 min. (3 tubes per test compound—triplicate). Test compound (5 µM final) was added to each tube to initiate reaction and was mixed by gentle vortexing, followed by incubation at 37° C. […] Samples were centrifuged at 4000 rpm for 20 min. to precipitate proteins and salt (Beckman Allegra 6KR, S/N ALK98DO6, #634). Supernatant was transferred to new 12×75 mm glass tubes and evaporated by Speed-Vac centrifugal vacuum evaporator. Samples were reconstituted in 200 μL 0.1% formic acid/acetonitrile (90/10) and vortexed vigorously to dissolve. The samples were then transferred to separate polypropylene microcentrifuge tubes and centrifuged at 14000×g for 10 min. (Fisher Micro 14, S/N M0017580). […]
The combined compound samples were injected into the LC-MS system, composed of a Hewlett-Packard HP 1100 diode array HPLC and a Micromass Quattro II triple quadruple mass spectrometer operating in positive electrospray SIR mode (programmed to scan specifically for the molecular ion of each test compound. Each test compound peak was integrated at each timepoint. […]

[6] = target: T3, FGF-R1 (Homo sapiens, UniProt P11362, C488A/C584S/L457V); experiment: Fibroblast Growth Factor (FGF-R) spectrophotometric assay; type: biochemical; details: 1 μM compound; read-out: FGF-P % inhibit @1 μM
T3 construct: starting from the endogenous methionine residue 456 to glutamate 766; made in house; host or cells: baculovirus vector expression system
Source text: The intracellular kinase domain of human FGF-R1 was expressed using the baculovirus vector expression system starting from the endogenous methionine residue 456 to glutamate 766, according to the residue numbering system of Mohammadi et al., Mol. Cell. Biol., 16, 977–989 (1996). In addition, the construct also has the following 3 amino acid substitutions: L457V, C488A, and C584S.
as §1
The spectrophotometric assay was carried out as described above for VEGF-R2, except for the following changes in concentration: FGF-R=50 nM, ATP=2 mM, and poly(E4Y1)=15 mM.

[7] = Mouse PK Assay; type: in vivo; details: female, B6, plasma
Method: The pharmacokinetics (e.g., absorption and elimination) of drugs in mice were analyzed using the following experiment. Test compounds were formulated as a solution or suspension in a 30:70 (PEG 400: acidified H2O) vehicle or as a suspension in 0.5% CMC. This was administered orally (p.o.) and intraperitoneally (i.p.) at variable doses to two distinct groups (n=4) of B6 female mice. Blood samples were collected via an orbital bleed at time points: 0 hour (pre-dose), 0.5 h, 1.0 h, 2.0 h, and 4.0 h, and 7.0 h post dose. Plasma was obtained from each sample by centrifugation at 2500 rpm for 5 min. Test compound was extracted from the plasma by an organic protein precipitation method. For each time bleed 50 μL of plasma was combined with 1.0 mL of acetonitrile, vortexed for 2 min. and then spun at 4000 rpm for 15 min. to precipitate the protein and extract out the test compound. […] Test-compound plasma concentrations (μg/mL) were determined by a comparison to standard curve (peak area vs. conc. μg/mL) using known concentrations of test compound extracted from plasma samples in the manner described above. […] The quantitated test samples were plotted for visual display using Kalidagraph software and their pharmacokinetic parameters were determined using WIN NONLIN software. […]

[8] = target: T4, PDGFRβ (Homo sapiens, UniProt P09619); experiment: PAE-PDGFRβ Phosphorylation in PAE-PDGFRB Cells Assay; type: cell-based; details: PAE cells overexpressing human PDGFRβ; read-out: PAE PDGFR autophos IC50
T4 construct: expressed in transfected cells; host or cells: porcine aorta endothelial (PAE) cells
Method: This assay determines the ability of a test compound to inhibit the autophosphorylation of PDGFRβ in porcine aorta endothelial (PAE)-PDGFRβ cells. PAE cells that overexpress human PDGFRβ were used in this assay. The cells were cultured in Ham's F12 media supplemented with 10% fetal bovine serum (FBS) and 400 ug/ml G418. Twenty thousands cells were seeded in each well of a 96-well plate in 50 μL of growth media and allowed to attach for 6 hours at 37° C. Cells were then exposed to the starvation media (Ham's F12 media supplemented with 0.1% FBS) for 16 hours. After the starvation period was over, 10 μL of test agent in 5% DMSO in starvation media were added to the test wells and 10 μL of the vehicle (5% DMSO in starvation media) were added into the control wells. The final DMSO concentration in each well was 0.5%. Plates were incubated at 37° C. for 1 hour and the cells were then stimulated with 1 μg/mL PDGF-BB (R & D System) in the presence of 2 mM Na3VO4 for 8 minutes. The cells were washed once with 1 mm Na3VO4 in HBSS and lysed by adding 50 μL per well of lysis buffer. One hundred μL of dilution buffer were then added to each well and the diluted cell lysate was transferred to a 96-well goat ant-rabbit coated plate (Pierce), which was pre-coated with Rabbit anti Human PDGFRβ antibody (Santa Cruz). The plates were incubated at room temperature for 2 hours and washed seven times with 1% Tween 20 in PBS. HRP-PY20 (Santa Cruz) was diluted and added to the plate for a 30-minute incubation. Plates were then washed again and TMB peroxidase substrate (Kirkegaard & Perry) was added for a 10-minute incubation. One hundred μL of 0.09 N H2SO4 was added into each well of the 96-well plate to stop the reaction. Phosphorylation status was assessed by spectrophotometer reading at 450 nm. IC50 values were calculated by curve fitting using a four-parameter analysis.

T2 sequence (P35968 with tags, fused parts or gaps DEL940-989/E990V limits assumed): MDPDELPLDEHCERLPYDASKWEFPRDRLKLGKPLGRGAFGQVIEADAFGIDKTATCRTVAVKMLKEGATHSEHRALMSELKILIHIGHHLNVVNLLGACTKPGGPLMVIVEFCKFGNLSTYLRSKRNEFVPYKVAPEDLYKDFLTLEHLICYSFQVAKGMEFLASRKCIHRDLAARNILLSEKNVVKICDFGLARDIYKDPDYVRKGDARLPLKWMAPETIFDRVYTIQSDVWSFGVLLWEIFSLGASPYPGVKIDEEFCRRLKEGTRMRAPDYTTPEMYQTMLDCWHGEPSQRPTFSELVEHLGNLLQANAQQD
T1 sequence (P06239 223-509 P223M/C224D): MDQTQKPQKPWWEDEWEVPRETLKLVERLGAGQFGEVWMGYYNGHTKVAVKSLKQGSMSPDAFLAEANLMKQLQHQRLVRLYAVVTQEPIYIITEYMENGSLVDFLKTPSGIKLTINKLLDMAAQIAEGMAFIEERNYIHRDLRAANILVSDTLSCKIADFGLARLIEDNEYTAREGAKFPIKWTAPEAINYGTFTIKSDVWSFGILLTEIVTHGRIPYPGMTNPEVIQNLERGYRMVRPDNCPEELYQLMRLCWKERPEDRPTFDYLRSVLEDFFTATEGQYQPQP
T3 sequence (P11362 456-766 L457V/C488A/C584S): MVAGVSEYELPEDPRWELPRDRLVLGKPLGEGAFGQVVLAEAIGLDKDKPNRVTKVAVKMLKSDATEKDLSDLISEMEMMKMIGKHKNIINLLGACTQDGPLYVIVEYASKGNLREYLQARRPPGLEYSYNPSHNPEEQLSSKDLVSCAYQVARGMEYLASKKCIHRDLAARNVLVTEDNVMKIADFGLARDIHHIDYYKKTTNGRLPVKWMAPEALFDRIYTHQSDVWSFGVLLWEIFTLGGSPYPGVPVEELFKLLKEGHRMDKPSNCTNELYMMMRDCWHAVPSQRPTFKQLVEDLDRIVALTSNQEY
T4 sequence (P09619 33-1106): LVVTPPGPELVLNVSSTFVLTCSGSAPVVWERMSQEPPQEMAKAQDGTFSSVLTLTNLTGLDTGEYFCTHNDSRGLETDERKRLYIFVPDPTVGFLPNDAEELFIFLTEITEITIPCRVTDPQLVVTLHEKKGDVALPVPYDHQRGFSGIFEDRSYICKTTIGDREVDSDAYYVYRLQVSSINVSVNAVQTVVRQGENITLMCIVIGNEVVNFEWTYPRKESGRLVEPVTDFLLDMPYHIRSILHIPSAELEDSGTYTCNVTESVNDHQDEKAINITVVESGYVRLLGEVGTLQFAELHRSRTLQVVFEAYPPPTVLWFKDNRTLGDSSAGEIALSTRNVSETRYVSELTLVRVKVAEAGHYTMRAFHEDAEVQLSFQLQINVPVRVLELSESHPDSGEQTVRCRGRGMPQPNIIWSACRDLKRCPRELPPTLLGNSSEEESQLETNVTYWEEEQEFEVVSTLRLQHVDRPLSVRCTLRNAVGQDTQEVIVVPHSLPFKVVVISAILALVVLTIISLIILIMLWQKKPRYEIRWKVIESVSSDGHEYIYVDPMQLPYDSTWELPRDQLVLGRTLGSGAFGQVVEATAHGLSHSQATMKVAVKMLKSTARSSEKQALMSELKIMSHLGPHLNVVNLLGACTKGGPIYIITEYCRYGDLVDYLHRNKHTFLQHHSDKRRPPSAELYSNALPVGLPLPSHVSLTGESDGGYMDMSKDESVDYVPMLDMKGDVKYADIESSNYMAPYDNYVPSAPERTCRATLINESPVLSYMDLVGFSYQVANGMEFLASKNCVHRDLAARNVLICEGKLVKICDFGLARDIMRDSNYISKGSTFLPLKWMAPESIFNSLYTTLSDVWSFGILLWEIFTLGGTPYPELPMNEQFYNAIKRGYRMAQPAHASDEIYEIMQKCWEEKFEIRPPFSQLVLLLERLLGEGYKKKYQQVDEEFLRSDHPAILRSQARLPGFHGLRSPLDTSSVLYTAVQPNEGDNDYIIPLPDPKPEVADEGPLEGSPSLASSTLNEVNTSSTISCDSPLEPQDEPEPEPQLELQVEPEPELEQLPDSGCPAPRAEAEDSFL

| inhibition at 1 µM [1] [%] | inhibition at 0.05 µM [2] [%] | % remaining (HLM) [5] | inhibition at 1 µM [6] [%] | AUC ([7]; ip, intraperitoneal, read-out: Mouse pK, AUC, ip) [ng·h/mL] | AUC ([7]; oral, read-out: Mouse pK, AUC, po) [ng·h/mL] | IC50 [8] [nM] | SMILES | IC50 [3] [nM] | IC50 [4] [nM] |
| --- | --- | --- | --- | --- | --- | --- | --- | --- | --- |
| 9 | 91 | 46@0.5 h % | 83 |  |  |  | CC(C)ONC(=O)c1ccccc1Nc1ccc2c(/C=C/c3ccccn3)n[nH]c2c1 [Example 3(c), N-Isopropoxy-2-[3-((E)-2-pyridin-2-yl-vinyl)-1H-indazol-6-ylamino]-benzamide] | 0.43 | 9.2 |
| 41 | 95 |  | 60 |  |  |  | Cn1cccc1C(=O)NNC(=O)c1ccccc1Nc1ccc2c(/C=C/c3ccccn3)n[nH]c2c1 [Example 3(f)] |  | > 100 |
|  |  |  |  | 690 | 330 |  | COC(=O)C(C(=O)OC)c1ccc(Cl)cc1[N+](=O)[O-] [Example 1(a), 2-(4-Chloro-2-nitro-phenyl)-malonic acid dimethyl ester] |  |  |
|  | 75 |  |  |  |  | 2 | Cc1ccnc(/C=C/c2n[nH]c3cc(Nc4ccccc4C(=O)NCc4ccncc4)ccc23)c1 [Example 38, 2-{3-[2-(4-Methyl-pyridin-2-yl)-vinyl]-1H-indazol6-ylamino}-N-pyridin-4-ylmethyl-benzamide] |  | 0.68 |
